Experimental data as given in ChEMBL document CHEMBL1141945, “Synthesis and biological evaluation of novel (L)-alpha-amino acid methyl ester, heteroalkyl, and aryl substituted 1,4-naphthoquinone derivatives as antifungal and antibacterial agents” (2005).
≈ marks a conversion by molar mass, not a printed value.

How the values were obtained:
Candida albicans = test: Antifungal activity against Candida albicans; format: functional
Cryptococcus neoformans = test: Antifungal activity against Cryptococcus neoformans; format: functional
Trichophyton benhamiae = test: Antifungal activity against Trichophyton mentagrophytes; format: functional, Arthroderma benhamiae
Klebsiella pneumoniae = test: Antibacterial activity against Klebsiella pneumoniae; format: functional
Pseudomonas aeruginosa = test: Antibacterial activity against Pseudomonas aeruginosa; format: functional
Staphylococcus aureus = test: Antibacterial activity against Staphylococcus aureus; format: functional
Sporothrix schenckii = test: Antifungal activity against Sporothrix schenckii; format: functional
Aspergillus fumigatus = test: Antifungal activity against Aspergillus fumigatus; format: functional
Candida parapsilosis = test: Antifungal activity against Candida parapsilosis; format: functional; conditions: Lodderomyces parapsilosis, ATCC 22019
Enterococcus faecalis = test: Antibacterial activity against Streptococcus faecalis; format: functional
Escherichia coli = test: Antibacterial activity against Escherichia coli; format: functional

| Compound | MIC (Candida albicans) [µg/mL] | MIC (Cryptococcus neoformans) [µg/mL] | MIC (Trichophyton benhamiae) [µg/mL] | MIC (Klebsiella pneumoniae) [µg/mL] | MIC (Pseudomonas aeruginosa) [µg/mL] | MIC (Staphylococcus aureus) [µg/mL] | MIC (Sporothrix schenckii) [µg/mL] | MIC (Aspergillus fumigatus) [µg/mL] | MIC (Candida parapsilosis) [µg/mL] | MIC (Enterococcus faecalis) [µg/mL] | MIC (Escherichia coli) [µg/mL] | MIC90 (Klebsiella pneumoniae) [µg/mL] | MIC90 (Escherichia coli) [µg/mL] | MIC90 (Pseudomonas aeruginosa) [µg/mL] | MIC90 (Staphylococcus aureus) [µg/mL] |
| --- | --- | --- | --- | --- | --- | --- | --- | --- | --- | --- | --- | --- | --- | --- | --- |
| C[C@@H]1[C@H](O)[C@@H](C)/C=C/C=C/C=C/C=C/C=C/C=C/C=C/[C@H](O[C@@H]2O[C@H](C)[C@@H](O)[C@H](N)[C@@H]2O)C[C@@H]2O[C@](O)(C[C@@H](O)C[C@@H](O)[C@H](O)CC[C@@H](O)C[C@@H](O)CC(=O)O[C@H]1C)C[C@H](O)[C@H]2C(=O)O [AMPHOTERICIN B] | 0.39 (≈ 0.422 µM) | 0.78 (≈ 0.844 µM) | 1.56 (≈ 1.69 µM) |  |  |  |  |  |  |  |  |  |  |  |  |
| GENTAMICIN |  |  |  | 0.39 | 0.78 | 0.78 |  |  |  |  |  |  |  |  |  |
| OC(Cn1cncn1)(Cn1cncn1)c1ccc(F)cc1F [FLUCONAZOLE] | 1 (≈ 3.27 µM) | 1 (≈ 3.27 µM) | 0.5 (≈ 1.63 µM) |  |  |  | 2 (≈ 6.53 µM) | 2 (≈ 6.53 µM) | 2 (≈ 6.53 µM) |  |  |  |  |  |  |
| Clc1ccc(COC(Cn2ccnc2)c2ccc(Cl)cc2Cl)c(Cl)c1 (centres undefined) [MICONAZOLE] | 25 (≈ 60.1 µM) | 12.5 (≈ 30 µM) | < 0.78 |  |  |  |  | 12.5 (≈ 30 µM) |  |  |  |  |  |  |  |
| O=C1c2sc3nccn3c2C(=O)c2c(O)ccc(O)c21 | 25 (≈ 87.3 µM) | < 12.5 | 25 (≈ 87.3 µM) | > 50 | > 50 | 50 (≈ 175 µM) | < 12.5 | > 50 |  | 25 (≈ 87.3 µM) | 50 (≈ 175 µM) |  |  |  |  |
| COC(=O)C/N=C1/C(=O)c2ccccc2C(O)=C1O |  |  |  | > 50 | 50 (≈ 191 µM) | 50 (≈ 191 µM) |  |  |  | 50 (≈ 191 µM) | 50 (≈ 191 µM) |  |  |  |  |
| NC[C@H]1O[C@H](O[C@H]2[C@H](O)[C@@H](O[C@H]3O[C@H](CO)[C@@H](O)[C@H](N)[C@H]3O)[C@H](N)C[C@@H]2N)[C@H](O)[C@@H](O)[C@@H]1O [KANAMYCIN] |  |  |  |  |  |  |  |  |  |  |  | 32 (≈ 66 µM) | 16 (≈ 33 µM) | > 128 | 2 (≈ 4.13 µM) |
| CC(C)N(C1=CC(=O)c2c(O)ccc(O)c2C1=O)C(C)C | > 50 | > 50 | 50 (≈ 173 µM) |  |  |  | > 50 | > 50 |  |  |  |  |  |  |  |
| NCC[C@H](O)C(=O)N[C@@H]1C[C@H](N)[C@@H](O[C@H]2O[C@H](CN)[C@@H](O)[C@H](O)[C@H]2O)[C@H](O)[C@H]1O[C@H]1O[C@H](CO)[C@@H](O)[C@H](N)[C@H]1O [AMIKACIN] |  |  |  | 1 (≈ 1.71 µM) | 2 (≈ 3.42 µM) | 16 (≈ 27.3 µM) |  |  |  | > 64 | 1 (≈ 1.71 µM) |  |  |  |  |
| COC(=O)C(CC(C)C)/N=C1\C=C(O)c2ccccc2C1=O (centres undefined) | > 50 | 25 (≈ 83 µM) | > 50 | 6.25 (≈ 20.7 µM) | > 50 | 12.5 (≈ 41.5 µM) | > 50 | > 50 | 50 (≈ 166 µM) | 12.5 (≈ 41.5 µM) | 12.5 (≈ 41.5 µM) |  |  |  |  |
| COC(=O)C(CCSC)/N=C1\C=C(O)c2ccccc2C1=O (centres undefined) | > 50 | 25 (≈ 78.3 µM) | > 50 | 6.25 (≈ 19.6 µM) | > 50 | > 50 | > 50 | > 50 | > 50 | 12.5 (≈ 39.1 µM) | > 50 |  |  |  |  |
| CC(C)N(C1=C(O)C(=O)c2ccccc2C1=O)C(C)C |  |  |  | > 50 | 50 (≈ 183 µM) | > 50 |  |  |  | > 50 | > 50 |  |  |  |  |
| O=C1c2ccccc2C(=O)c2c1sc1nccn21 | 50 (≈ 197 µM) | 12.5 (≈ 49.2 µM) | 25 (≈ 98.3 µM) | > 50 | > 50 | 50 (≈ 197 µM) | 25 (≈ 98.3 µM) | 25 (≈ 98.3 µM) |  | 25 (≈ 98.3 µM) | 50 (≈ 197 µM) |  |  |  |  |
| COC(=O)C/N=C1\C=C(O)c2ccccc2C1=O | 50 (≈ 204 µM) | 50 (≈ 204 µM) | > 50 |  |  |  | 50 (≈ 204 µM) | 25 (≈ 102 µM) | 50 (≈ 204 µM) |  |  |  |  |  |  |
| COC(=O)C(C)/N=C1/C(=O)c2ccccc2C(O)=C1O (centres undefined) | > 50 | 25 (≈ 90.8 µM) | > 50 |  |  |  | > 50 | > 50 | 50 (≈ 182 µM) |  |  |  |  |  |  |
| COC(=O)C(CCSC)/N=C1/C(=O)c2ccccc2C(O)=C1O (centres undefined) | 12.5 (≈ 37.3 µM) | 12.5 (≈ 37.3 µM) | 12.5 (≈ 37.3 µM) | > 50 | > 50 | > 50 | 25 (≈ 74.5 µM) | 12.5 (≈ 37.3 µM) | 25 (≈ 74.5 µM) | 25 (≈ 74.5 µM) | > 50 |  |  |  |  |
| NC[C@H]1O[C@H](O[C@H]2[C@H](O)[C@@H](O[C@H]3O[C@H](CO)[C@@H](O)[C@H](N)[C@H]3O)[C@H](N)C[C@@H]2N)[C@H](N)C[C@@H]1O [TOBRAMYCIN] |  |  |  | 1 (≈ 2.14 µM) | 4 (≈ 8.56 µM) | 0.25 (≈ 0.535 µM) |  |  |  | 32 (≈ 68.4 µM) | 0.5 (≈ 1.07 µM) |  |  |  |  |
| COC(=O)C(C)/N=C1\C=C(O)c2ccccc2C1=O (centres undefined) |  |  |  | 25 (≈ 96.4 µM) | > 50 | > 50 |  |  |  | > 50 | > 50 |  |  |  |  |
| O=C1C(=O)c2ccccc2C(O)=C1Sc1ncc[nH]1 | > 50 | 50 (≈ 184 µM) | > 50 | > 50 | > 50 | 50 (≈ 184 µM) | > 50 | > 50 | > 50 | 25 (≈ 91.8 µM) | > 50 |  |  |  |  |
| NYSTATIN | 7.8 | 3.5 |  |  |  |  | 13.2 |  |  |  |  |  |  |  |  |
